Laboratory results as given in PMC7226075, “A Novel Serine Protease Inhibitor PE-BBI Ameliorates Cockroach Extract-Mediated Airway Epithelial Barrier Dysfunction” (Biomolecules, 2020).
Entries after “also recorded” stand apart in the source; their conditions may differ.

What was measured:
BEAS-2B cells = conditions: ref [13], cited from earlier work
recombinant trypsin = assay: Inhibition of recombinant trypsin, fluorogenic peptide substrate-based activity assay; assay type: biochemical; conditions: Boc-QAR-NH2Mec 50 µM, λex 380/λem 460 nm, 37 °C, 100 μL, inhibitors 0.01–10 μM, four-parameter logistic fit; mean (95% CI) in Figure 1B, n ≥ 4
Description: (§1) Cleavage of the fluorogenic peptide substrate Boc-QAR-NH2Mec (50 µM final concentration) (R&D Systems) was used to assay TLP activity with the rate of substrate hydrolysis continuously recorded at λex 380 nm and λem 460 nm using a FLUOstar Optima microplate reader (BMG Labtech). All inhibition assays were performed in microtitre plates maintained at 37 °C in a final volume of 100 μL. Curve fitting and pIC50 (-logIC50) determinations were carried out by fitting to a four-parameter logistic equation (GraphPad Prism).

16HBE cells = assay: Cell viability assay (RealTime-Glo MT), submerged 16HBE cells; assay type: cell-based, human; conditions: CRE 16.5 µg protein/well, 24 h, inhibitor 50 µM, n = 6
Description: Cell viability was measured in submerged 16HBE cells using the non-lytic and homogeneous RealTime-Glo MT Cell Viability Assay (Promega) as per the manufacturer’s instructions.

[1] = tested on: 16HBE cell surface TLP activity; assay: 16HBE cell surface TLP activity assay; assay type: cell-based, human; conditions: polarised 16HBE, inhibitor 50 µM, Boc-QAR-NH2Mec 50 µM apical, 1 h continuous, λex 380/λem 460 nm; n = 7, mean ± SEM
Description: Studies were performed using a SV-40-transformed human bronchial epithelial cell line (16HBE14o^-). The 16HBE cells were grown on collagen-coated T75 flasks (Corning) using bronchial epithelial growth medium (BEGM) (Lonza), in a humidified cell culture incubator supplemented with 5% CO2. After trypsinization, cells (5 × 10^5 cells/cm^2) were seeded onto semipermeable transwell filters (Corning) in BEGM and allowed to grow at liquid–liquid interface for 2 days then switched to DMEM/F-12 medium supplemented with 2% (v/v) Ultroser G (Pall-BioSpera) for a further 2 days (liquid–liquid interface), at which point cultures were exposed to air–liquid interface conditions for a further 5–7 day period, whereupon experiments were conducted.
Polarised 16HBE cells grown on transwell semi-permeable filters were used to assess cell surface TLP activity. Apical cell-surface (membrane-attached) proteolytic activity was measured in stringently washed (using PBS) cells via direct addition of a fluorogenic peptide substrate (50 µM Boc-QAR-–NH2Mec) to the apical compartment with continuous measurement of the formation of –NH2Mec (at λex 380 nm and λem 460 nm) over a 1 h period. Surface activity was determined in the presence and absence of protease inhibitors (GM, pLR-HL or PE-BBI) which were added at a final concentration of 50 µM.

[2] = tested on: cockroach extract (CRE) trypsin-like protease (TLP) activity; assay: Inhibition of CRE trypsin-like protease (TLP) activity, fluorogenic peptide substrate-based assay; assay type: biochemical, German cockroach; conditions: Boc-QAR-NH2Mec 50 µM, λex 380/λem 460 nm, 37 °C, 100 μL, inhibitors 0.01–10 μM, four-parameter logistic fit; mean (95% CI) in Figure 1B, n ≥ 4
Description: Whole-body German cockroach extract was sourced from Greer Laboratories (USA). All other reagents were obtained from Sigma-Aldrich unless otherwise indicated.
as §1

pIC50 (-logIC50) vs recombinant trypsin (recombinant trypsin): 6.76
pIC50 (-logIC50) vs CRE TLP activity [2]: ~ 6.7
SMILES: CCOC(=O)c1ccc(OC(=O)CCCCCN=C(N)N)cc1.CS(=O)(=O)O [GM, gabexate mesylate]
CRE-induced airway epithelial cell damage in presence of GM (BEAS-2B cells; previous study): ameliorates CRE-induced airway epithelial cell damage
CRE-mediated cell damage and inflammation in presence of GM (BEAS-2B cells): reduced CRE-mediated cell damage and inflammation
Rescue of CRE-induced cell damage (viability) (16HBE cells): failed to do so; also recorded: trend towards modest protection of cells by GM, and pLR-HL, but this was not statistically significant
Effect on 16HBE cell surface TLP activity [1]: significantly reduced
